The source of these data is patent publication US20240132489A1, “AROMATIC HETEROCYCLIC COMPOUND, PHARMACEUTICAL COMPOSITION, AND USE THEREOF” (GT APEIRON THERAPEUTICS LIMITED, priority 2020, published 2024).

Where a name gives a salt, the structure may show the parent alone.

The target of one assay is CDK9/CyclinT1 (Homo sapiens (Human), UniProt P50750). As to the kind of experiment: In vitro enzymatic inhibitory activity test, CDK9. The class given is biochemical. Particulars: Caliper mobility shift, 180 min at 27° C. As for the experimental part: (§1) CDK7/CyclinH was diluted in a test buffer solution (20 mM MES PH6.75, 0.01% Tween20, 50 ug/mL BSA, 6 mM MgCl2) to obtain a corresponding enzyme solution with a 2.4× concentration. CDK2/CyclinE1 was diluted in a test buffer solution (20 mM MES PH6.75, 0.01% Tween20, 50 ug/mL BSA, 6 mM MgCl2) to obtain a corresponding enzyme solution with a 2.4× concentration. CDK9/CyclinT1 was diluted in a test buffer solution (20 mM MES PH6.75, 0.01% Tween20, 50 ug/mL BSA, 10 mM MgCl2) to obtain a corresponding enzyme solution with a 2.4× concentration. CDK12/CyclinK was diluted in a test buffer solution (80 mM MES PH6.5, 0.01% Tween20, 50 ug/mL BSA, 10 mM MgCl2) to obtain a corresponding enzyme solution with a 2.4× concentration. The compounds were dissolved in dimethyl sulfoxide (DMSO) at a concentration of 10 mM. […] 2 ul of a test compound solution was mixed with 5 ul of enzyme solution. After incubating for 10 min, 5 ul of the mixed solution of the polypeptide substrate and ATP was added. After incubating at 27° C. for 180 min, 4 uL of EDTA with a 120 mM concentration was added to each sample to stop the reaction. […] A CDK9/cyclin TI complex (8 nM) and a “5-FAM-CDK9tide” peptide substrate (2 μM, synthetic fluorophore labeled peptide having the following sequence: 5-FAM-GSRTPMY-NH2, where 5-FAM was as defined above, and NH2 represented C-terminal amide) were used for testing the CDK9 inhibition. […] A CDK2/cyclin E1 complex (0.5 nM) and the “5-FAM-CDK7tide” (2 μM) as defined above were used for testing the CDK2 inhibition.
(§2) Electrophoretic separation was performed on Caliper EZ Reader II by means of a fluorogenic substrate and a phosphorylated product to analyze the reaction mixture. Data were calculated by using GraphPad Prism version 6.0. IC50 values were adjusted by means of a nonlinear regression model using a dose-response curve.

The target in assay [1] is CDK7/cyclin H/MAT1 complex (Homo sapiens (Human), UniProt P50613). Kind of assay: In vitro enzymatic inhibitory activity test, CDK7. The class given is biochemical. Conditions: Caliper mobility shift, 180 min at 27° C. The procedure: as §1, §2
In another assay the test system is HCC70 cells. Kind of assay: Cell bioactivity detection (CyQuant), HCC70. The class given is cell-based. Particulars: human breast cancer cells HCC70, 72 hours. As for the experimental part:
(§3) Trypsinization was performed on A2780 and HCC70 cells. Cell suspensions were respectively transferred to 15 mL of centrifuge tubes and centrifuged at 800 rpm for 5 min. The supernatant was discarded. Resuspension in a fresh culture medium (RPMI 1640+10% FBS) was performed. After counting, the cells were inoculated at 2000/well in a 384-well plate (50 φL of 1640+10% FBS culture medium was added to the 2nd line and the 23rd line of the 384-well plate, and 50 μL of DPBS was added to surrounding wells). Incubation in an incubator (37° C., 5% CO2) was performed overnight.
(§4) The compound was added to the well plate the next day. The compound had the highest concentration of 10 μM and was diluted at the ratio of 1:4 to form 9 concentrations. The positive compound Paclitaxel had the highest concentration of 1 μM and was diluted at the ratio of 1:3 to form 9 concentrations. The DMSO content of each well was unified to 0.2%. A cell plate was centrifuged at 800 rpm for 30 seconds. Incubation for 72 hours in an incubator (37° C., 5% CO2) was performed. On the fourth day, a Cyquant reagent (3×) was prepared according to kit instructions. Each 384-well plate was prepared in the following proportions: DPBS: 11.568 mL, CyQuant® Direct nucleic acid stain: 72 μL, CyQuant® Direct background suppressor: 360 ILL. The plates were uniformly mixed and placed for standby application at room temperature. The cell plate was taken out and placed at room temperature to be balanced for 30 min. 25 μL of Cyquant reagent (3×) was dispensed to the cells in each well of the 384-well plates by using a Multi-drop dispenser. Incubation at 37° C. for 60 or more minutes was performed. The plates were read by Acumen (Acumen was configured to have a 488 nm excitation wavelength). IC50 results were analyzed by XLFIT5 of the IDBS company.

Assay [2] addresses CDK12(aa686-1082)/cyclin K complex (Homo sapiens (Human), UniProt Q9NYV4). Kind of assay: In vitro enzymatic inhibitory activity test, CDK12. The class given is biochemical. Particulars: Caliper mobility shift, 180 min at 27° C. As for the experimental part: as §1, §2
The target in the next assay is CDK2/cyclin E1 complex (Homo sapiens (Human), UniProt P24941). Kind of assay: In vitro enzymatic inhibitory activity test, CDK2. Type of assay: biochemical. Conditions: Caliper mobility shift, 180 min at 27° C. As for the experimental part:
CDK7/CyclinH was diluted in a test buffer solution (20 mM MES PH6.75, 0.01% Tween20, 50 ug/mL BSA, 6 mM MgCl2) to obtain a corresponding enzyme solution with a 2.4× concentration. CDK2/CyclinE1 was diluted in a test buffer solution (20 mM MES PH6.75, 0.01% Tween20, 50 ug/mL BSA, 6 mM MgCl2) to obtain a corresponding enzyme solution with a 2.4× concentration. CDK9/CyclinT1 was diluted in a test buffer solution (20 mM MES PH6.75, 0.01% Tween20, 50 ug/mL BSA, 10 mM MgCl2) to obtain a corresponding enzyme solution with a 2.4× concentration. CDK12/CyclinK was diluted in a test buffer solution (80 mM MES PH6.5, 0.01% Tween20, 50 ug/mL BSA, 10 mM MgCl2) to obtain a corresponding enzyme solution with a 2.4× concentration. […] 2 ul of a test compound solution was mixed with 5 ul of enzyme solution. After incubating for 10 min, 5 ul of the mixed solution of the polypeptide substrate and ATP was added. After incubating at 27° C. for 180 min, 4 uL of EDTA with a 120 mM concentration was added to each sample to stop the reaction. […] A CDK9/cyclin TI complex (8 nM) and a “5-FAM-CDK9tide” peptide substrate (2 μM, synthetic fluorophore labeled peptide having the following sequence: 5-FAM-GSRTPMY-NH2, where 5-FAM was as defined above, and NH2 represented C-terminal amide) were used for testing the CDK9 inhibition. […] A CDK2/cyclin E1 complex (0.5 nM) and the “5-FAM-CDK7tide” (2 μM) as defined above were used for testing the CDK2 inhibition.
as §2

In a further assay the test system is A2780 cells. As to the kind of experiment: Cell bioactivity detection (CyQuant), A2780. Type of assay: cell-based, human. Particulars: ovarian carcinoma cells A2780, 72 hours. The procedure:
as §3, §4

Chain of CDK12(aa686-1082)/cyclin K complex (Q9NYV4 686-1082, species assumed): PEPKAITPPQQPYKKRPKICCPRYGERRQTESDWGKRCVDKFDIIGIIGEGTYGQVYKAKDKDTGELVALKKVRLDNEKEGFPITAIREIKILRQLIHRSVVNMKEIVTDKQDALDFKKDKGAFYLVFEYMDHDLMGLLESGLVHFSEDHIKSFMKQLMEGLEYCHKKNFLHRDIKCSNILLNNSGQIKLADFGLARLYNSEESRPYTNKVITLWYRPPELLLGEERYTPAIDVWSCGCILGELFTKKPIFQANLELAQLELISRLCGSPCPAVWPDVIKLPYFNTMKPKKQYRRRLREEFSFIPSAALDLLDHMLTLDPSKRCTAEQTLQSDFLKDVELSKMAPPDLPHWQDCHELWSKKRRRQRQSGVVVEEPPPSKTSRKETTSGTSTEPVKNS
Chain of CDK12(aa686-1082)/cyclin K complex (O75909 whole entry partner, species assumed, the tested form may be a part): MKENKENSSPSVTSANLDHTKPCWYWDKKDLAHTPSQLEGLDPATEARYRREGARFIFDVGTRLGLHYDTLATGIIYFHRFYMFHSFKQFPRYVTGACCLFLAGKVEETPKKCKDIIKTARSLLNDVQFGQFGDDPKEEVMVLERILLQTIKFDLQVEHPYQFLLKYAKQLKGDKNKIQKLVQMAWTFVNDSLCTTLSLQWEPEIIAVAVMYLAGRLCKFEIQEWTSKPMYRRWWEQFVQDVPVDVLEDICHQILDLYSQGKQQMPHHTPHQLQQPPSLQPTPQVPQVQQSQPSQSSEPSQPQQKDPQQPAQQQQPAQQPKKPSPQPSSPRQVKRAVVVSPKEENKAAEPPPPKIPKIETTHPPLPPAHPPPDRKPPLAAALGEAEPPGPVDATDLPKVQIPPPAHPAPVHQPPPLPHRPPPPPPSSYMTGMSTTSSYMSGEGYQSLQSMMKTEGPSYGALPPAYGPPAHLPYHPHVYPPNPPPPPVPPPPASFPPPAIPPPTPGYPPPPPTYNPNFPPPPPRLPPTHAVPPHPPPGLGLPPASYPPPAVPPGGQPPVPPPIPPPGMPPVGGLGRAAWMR
Chain of CDK9/CyclinT1 (P50750 whole entry, species assumed): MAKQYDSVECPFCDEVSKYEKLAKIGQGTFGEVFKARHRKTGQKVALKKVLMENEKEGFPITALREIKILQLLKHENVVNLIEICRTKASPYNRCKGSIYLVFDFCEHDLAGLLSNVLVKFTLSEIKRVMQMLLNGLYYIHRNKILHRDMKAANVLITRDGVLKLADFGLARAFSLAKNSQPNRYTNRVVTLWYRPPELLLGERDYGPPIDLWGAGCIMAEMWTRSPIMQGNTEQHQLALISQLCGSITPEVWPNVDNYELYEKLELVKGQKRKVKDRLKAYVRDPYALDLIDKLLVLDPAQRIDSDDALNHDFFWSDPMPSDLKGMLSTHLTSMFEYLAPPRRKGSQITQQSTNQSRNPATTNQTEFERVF
Chain of CDK9/CyclinT1 (O60563 whole entry partner, species assumed): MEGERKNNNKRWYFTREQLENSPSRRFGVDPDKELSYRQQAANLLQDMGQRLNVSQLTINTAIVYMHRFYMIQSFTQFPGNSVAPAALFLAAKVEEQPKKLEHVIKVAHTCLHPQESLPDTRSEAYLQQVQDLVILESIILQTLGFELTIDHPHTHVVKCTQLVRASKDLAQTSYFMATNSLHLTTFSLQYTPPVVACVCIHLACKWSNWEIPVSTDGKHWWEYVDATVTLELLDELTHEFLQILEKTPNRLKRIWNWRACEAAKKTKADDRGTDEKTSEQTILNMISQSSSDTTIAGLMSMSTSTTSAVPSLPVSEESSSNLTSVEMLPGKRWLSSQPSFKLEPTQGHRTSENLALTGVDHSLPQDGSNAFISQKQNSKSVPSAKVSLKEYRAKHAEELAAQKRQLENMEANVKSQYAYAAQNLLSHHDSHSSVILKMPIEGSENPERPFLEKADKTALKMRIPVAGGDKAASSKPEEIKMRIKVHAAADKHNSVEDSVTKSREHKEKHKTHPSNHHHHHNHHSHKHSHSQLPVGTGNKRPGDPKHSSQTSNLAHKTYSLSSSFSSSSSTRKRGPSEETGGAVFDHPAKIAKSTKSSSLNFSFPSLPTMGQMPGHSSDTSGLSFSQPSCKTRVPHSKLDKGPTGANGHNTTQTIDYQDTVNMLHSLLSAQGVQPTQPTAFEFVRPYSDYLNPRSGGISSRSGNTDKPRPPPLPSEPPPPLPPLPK
Chain of CDK7/cyclin H/MAT1 complex (P50613 whole entry, species assumed): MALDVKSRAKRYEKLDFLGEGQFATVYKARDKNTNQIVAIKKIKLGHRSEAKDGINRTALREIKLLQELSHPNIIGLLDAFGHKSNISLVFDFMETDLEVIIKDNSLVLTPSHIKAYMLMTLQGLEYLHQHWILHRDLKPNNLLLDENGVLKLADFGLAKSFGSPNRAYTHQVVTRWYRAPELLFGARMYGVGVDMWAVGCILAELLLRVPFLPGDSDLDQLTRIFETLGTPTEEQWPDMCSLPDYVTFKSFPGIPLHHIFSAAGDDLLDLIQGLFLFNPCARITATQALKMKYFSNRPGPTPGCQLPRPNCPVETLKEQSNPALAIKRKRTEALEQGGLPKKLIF
Chain of CDK7/cyclin H/MAT1 complex (P51946 whole entry partner, species assumed): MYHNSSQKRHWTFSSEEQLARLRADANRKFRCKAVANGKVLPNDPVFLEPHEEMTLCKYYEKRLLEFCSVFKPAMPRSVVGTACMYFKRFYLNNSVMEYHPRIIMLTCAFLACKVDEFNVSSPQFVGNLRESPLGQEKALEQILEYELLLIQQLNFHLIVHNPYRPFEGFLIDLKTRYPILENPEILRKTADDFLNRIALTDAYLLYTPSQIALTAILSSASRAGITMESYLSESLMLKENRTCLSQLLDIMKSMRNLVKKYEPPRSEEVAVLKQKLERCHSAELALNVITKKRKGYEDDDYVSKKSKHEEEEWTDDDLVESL
Chain of CDK7/cyclin H/MAT1 complex (P51948 whole entry partner, species assumed): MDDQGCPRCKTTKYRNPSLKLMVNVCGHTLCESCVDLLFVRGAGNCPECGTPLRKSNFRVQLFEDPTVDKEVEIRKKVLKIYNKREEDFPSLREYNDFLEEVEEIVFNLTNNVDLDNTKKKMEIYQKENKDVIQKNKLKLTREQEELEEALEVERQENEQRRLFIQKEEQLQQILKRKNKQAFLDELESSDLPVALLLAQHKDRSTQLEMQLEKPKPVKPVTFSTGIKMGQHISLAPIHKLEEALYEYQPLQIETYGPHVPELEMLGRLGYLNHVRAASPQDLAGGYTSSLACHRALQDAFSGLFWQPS

Broadly, the IC50 is the midpoint of a concentration-inhibition curve. Regarding `C[C@H]1CC[C@H](Nc2ncc(C(F)(F)F)c(-c3c[nH]c4nc(N5CCOC[C@@H]5C)ccc34)n2)CN1` [Compound 69, 4-(6-((S)-3-methylmorpholine)-1H-pyrrol[2,3-b]pyridin-3-yl)-N-((3S,6S)-6-methylpiperidin-3-yl)-5-(trifluoromethyl)pyrimidine-2-amine], the IC50 on CDK9/CyclinT1 was greater than 50 µM; in assay [1], 0.0284 µM; with HCC70 cells it was 0.642 µM; in assay [2], 49.1 µM; on CDK2/cyclin E1 complex, 47.1 µM.

With `CC1(O)CCN(c2ccc3c(-c4nc(N[C@H]5CCCNC5)ncc4C(F)(F)F)c[nH]c3n2)CC1` [Compound 23, (S)-4-methyl-1-(3-(2-(piperidine-3-amino)-5-(trifluoromethyl)pyrimidin-4-yl)-1H-pyrrolo[2,3-b]pyridin-6-yl)piperidin-4-ol], the IC50 at CDK9/CyclinT1 was 2.61 µM; in assay [1], 0.0131 µM; in the assay with HCC70 cells (Homo sapiens, HCC70, 72 h) it was 0.0199 µM; in assay [2] it was 0.783 µM; in the assay with A2780 cells (Homo sapiens, A2780, 72 h), 0.0088 µM; on CDK2/cyclin E1 complex, 4.31 µM.

`FC(F)(F)c1cnc(N[C@H]2CCCNC2)nc1-c1c[nH]c2nc(N3CCOC[C@@H]3C(F)(F)F)ccc12` [Compound 33, N—((S)-piperidin-3-yl)-5-(trifluoromethyl)-4-(6-((R)-3-(trifluoromethyl)morpholinyl)-1H-pyrrol[2,3-b]pyridin-3-yl)pyrimidine-2-amine]: the IC50 on CDK9/CyclinT1 turned out to be 4.43 µM; in assay [1] it was 0.0468 µM; in the assay on HCC70 cells (Homo sapiens, HCC70, 72 h), 0.012 µM; in assay [2], 2.01 µM; in the assay with A2780 cells (Homo sapiens, A2780, 72 h), 0.0024 µM; at CDK2/cyclin E1 complex it was 3.23 µM.

On to `FC(F)(F)c1cnc(N[C@H]2CCCNC2)nc1-c1c[nH]c2nc(C3CCOC3)ccc12` (stereo partly drawn) [Compound 29, N—((S)-piperidin-3-yl)-4-(6-(tetrahydrofuran-3-yl)-1H-pyrrol[2,3-b]pyridin-3-yl)-5-(trifluoromethyl)pyrimidine-2-amine formate], for which the concentration for half-maximal inhibition (IC50) on CDK9/CyclinT1 is 2.48 µM; in assay [1], 0.00708 µM; with HCC70 cells (Homo sapiens, HCC70, 72 h), 0.0031 µM; in assay [2], 0.855 µM; with A2780 cells (Homo sapiens, A2780, 72 h), 0.0021 µM; at CDK2/cyclin E1 complex, 1.26 µM.

Regarding `FC(F)(F)c1cnc(N[C@@H]2CCCNC2)nc1-c1c[nH]c2nc(C3CCCCO3)ccc12` (stereo partly drawn) [Compound 112], the IC50 in assay [1] was determined as 0.00582 µM.

In the case of `FC(F)(F)c1cnc(N[C@H]2CCCNC2)nc1-c1c[nH]c2nc(N3CC4CCC3CO4)ccc12` (stereo partly drawn) [Compound 32, 4-(6-(2-oxo-5-azabicyclo[2.2.2]octan-5-yl)-1H-pyrrol[2,3-b]pyridin-3-yl)-N—((S)-piperidin-3-yl)-5-(trifluoromethyl)pyrimidine-2-amine], the IC50 on CDK9/CyclinT1 was 6.52 µM; in assay [1] it was 0.0199 µM; with HCC70 cells (Homo sapiens, HCC70, 72 h), 0.024 µM; in assay [2], 3.43 µM; in the assay on A2780 cells (Homo sapiens, A2780, 72 h) it was 0.0063 µM; at CDK2/cyclin E1 complex, 3.63 µM.

For `FC(F)(F)c1cnc(N[C@H]2CCCNC2)nc1-c1c[nH]c2nc(C3CCOCC3)ccc12` [Compound 28, (S)—N-(piperidin-3-yl)-4-(6-(tetrahydro-2H-pyran-4-yl)-1H-pyrrolo[2,3-b]pyridin-3-yl)-5-(trifluoromethyl)pyrimidine-2-amine formate], the IC50 amounted to 3.63 µM at CDK9/CyclinT1; 0.00696 µM in assay [1]; 0.0077 µM in the assay with HCC70 cells (Homo sapiens, HCC70, 72 h); 1.1 µM in assay [2]; 0.0078 µM in the assay with A2780 cells (Homo sapiens, A2780, 72 h); 3.47 µM on CDK2/cyclin E1 complex.

For `FC(F)(F)c1cnc(N[C@H]2CCCNC2)nc1-c1c[nH]c2nc(N3C[C@@H]4C[C@H]3CO4)ccc12` [Compound 13, 4-(6-((1S,4S)-2-oxa-5-azabicyclo[2.2.1]heptan-5-yl)-1H-pyrrolo[2,3-b]pyridin-3-yl)-N—((S)-piperidin-3-yl)-5-(trifluoromethyl)pyrimidine-2-amine], the IC50 at CDK9/CyclinT1 came to 3.43 µM; in assay [1], 0.00705 µM; in the assay on HCC70 cells (Homo sapiens, HCC70, 72 h), 0.029 µM; in assay [2], 2.64 µM; with A2780 cells (Homo sapiens, A2780, 72 h) it was 0.0352 µM; at CDK2/cyclin E1 complex it was 2.67 µM.

`FC(F)(F)c1cnc(N[C@H]2CCCNC2)nc1-c1c[nH]c2nc(C3CCCCO3)ccc12` (stereo partly drawn) [Compound 113]: the IC50 in assay [1] came to 0.00476 µM.

As for `C[C@H]1CNC[C@@H](Nc2ncc(C(F)(F)F)c(-c3c[nH]c4nc(N5CCOC[C@@H]5C)ccc34)n2)C1` [Compound 72, 4-(6-((S)-3-methylmorpholinyl)-1H-pyrrol[2,3-b]pyridin-3-yl)-N-((3S,5R)-5-methylpiperidin-3-yl)-5-(trifluoromethyl)pyrimidine-2-amine], the IC50 at CDK9/CyclinT1 came out at 1.82 µM; in assay [1] it was 0.0176 µM; with HCC70 cells it was 0.021 µM; in assay [2] it was 2.54 µM; in the assay with A2780 cells, 0.0028 µM; at CDK2/cyclin E1 complex, 3.35 µM.

As for `CC1(O)CCN(c2ccc3c(-c4nc(N[C@H]5CCCNC5)ncc4C(F)(F)F)c[nH]c3n2)C1` (stereo partly drawn) [Compound 6, 3-methyl-1-(3-(2-(((S)-piperidin-3-yl)amino)-5-(trifluoromethyl)pyrimidin-4-yl)-1H-pyrrolo[2,3-b]pyridin-6-yl)pyrrolidin-3-ol], the IC50 on CDK9/CyclinT1 was found to be 1.03 µM; in assay [1], 0.0104 µM; in the assay on HCC70 cells (Homo sapiens, HCC70, 72 h), 0.0067 µM; in assay [2] it was 1.84 µM; in the assay with A2780 cells (Homo sapiens, A2780, 72 h), 0.022 µM; on CDK2/cyclin E1 complex, 4.38 µM.

For the molecule `FC(F)(F)c1cnc(N[C@@H]2[C@@H]3CC[C@H]2NC3)nc1-c1c[nH]c2nc(N3CCOCC3)ccc12` [Compound 43, (1R,4R,7R)—N-(4-(6-morpholinyl-1H-pyrrol[2,3-b]pyridin-3-yl)-5-(trifluoromethyl)pyrimidin-2-yl)-2-azabicyclo[2.2.1]heptan-7-amine formate], the IC50 at CDK9/CyclinT1 was greater than 10 µM; in assay [1] it was 0.0829 µM; in the assay on HCC70 cells (Homo sapiens, HCC70, 72 h), 6.07 µM; in assay [2], greater than 10 µM; on CDK2/cyclin E1 complex, greater than 10 µM.
